Results taken from patent US20130216600A1, “ANTIMICROBIAL NANOPARTICLE CONJUGATES” (priority 2010, published 2013).
Where “and” joins values, the source holds several entries; their conditions need not be identical. Identical values can stand only once.

Experiments:
[1] = system: Klebsiella pneumoniae ATCC 10031; experiment: MIC of DexOx-antibiotic conjugates and free drugs; format: cell-based; settings: K. pneumoniae
Experimental: (§1) To evaluate the antibacterial activity of DexOx-Amp, DexOx-Van and DexOx-Gen, the minimal inhibitory concentration (MIC) was determined for each of the conjugates and compared with each of MIC values obtained for Amp, Van and Gen. The tests were performed against 5×10^5 cells/mL (in 0.2 mL of medium) of Staphylococcus aureus ATCC 6538 (S. aureus), Pseudomonas aeruginosa ATCC 15442 (P. aeruginosa), Klebsiella pneumoniae ATCC 10031 (K. pneumoniae) or Escherichia coli ATCC 25922 (E. coli), with concentrations of the drug between 0 and 120 μg/mL. The microorganisms were incubated at 37° C. for 18 h, and the absorbance at 600 nm was monitored every 30 min.

[2] = system: Pseudomonas aeruginosa ATCC 15442; experiment: MIC of DexOx-antibiotic conjugates and free drugs; format: cell-based; settings: P. aeruginosa
Experimental: as §1

Candida albicans = experiment: MIC of AmB and DexOx-AmB conjugates (NCCLS M27A2E); format: cell-based; settings: 48 hours
Excerpt: The “minimal inhibitory concentration” or “MIC” is defined as the lowest drug concentration that results in complete inhibition of visible growth of a microorganism.

C. albicans = experiment: Spectrum of antifungal activity, MIC after 8 hours; format: cell-based; settings: formulation
C. glabrata = experiment: Spectrum of antifungal activity, MIC after 8 hours; format: cell-based; settings: formulation
Experimental: (§2) In order to determine the spectrum of antifungal activity of the nanoparticles functionalized with amphotericin B, they were tested against four strains of Candida, namely: C parapsilosis, C krusei, C glabrata, and C tropicalis. The MIC values were determined after 8 hours of incubation with AmB, DexOx-AmB conjugate, unconjugated silica nanoparticles, and silica nanoparticles functionalized with DexOx-AmB.

C. krusei = experiment: Spectrum of antifungal activity, MIC after 8 hours; format: cell-based; settings: formulation
Experimental: as §2

C. parapsilosis = experiment: Spectrum of antifungal activity, MIC after 8 hours; format: cell-based; settings: formulation
Experimental: as §2

C. tropicalis = experiment: Spectrum of antifungal activity, MIC after 8 hours; format: cell-based; settings: formulation
Experimental: as §2

[3] = The Merck Index 1989; cited from earlier work

Compound: CC1(C)S[C@@H]2[C@H](NC(=O)[C@H](N)c3ccccc3)C(=O)N2[C@H]1C(=O)O [Amp, ampicillin]
- MIC ([1]; Klebsiella pneumoniae, ATCC10031, free drug): 20 to 40 µg/mL
- MIC ([2]; Pseudomonas aeruginosa, ATCC15442, free drug): > 120 µg/mL

Compound: gentamicin
- MIC free drug (μg/mL) [1]: MIC < 2 μg/mL
- MIC free drug (μg/mL) [2]: MIC < 2 μg/mL

Compound: amphotericin B [AmB]
- MIC (μg of conjugate/ml) (Candida albicans; 30° C., n=6): 0.9 ± 0.2 μg of conjugate/ml
- MIC (Candida albicans; unconjugated (soluble) AmB): 0.9 µg/mL and 0.9 ± 0.2 µg/mL
- Minimum Inhibitory Concentration (MIC) (C. albicans): 0.3
- Minimum Inhibitory Concentration (MIC) (C. glabrata): 0.03
- Minimum Inhibitory Concentration (MIC) (C. krusei): 0.1
- Minimum Inhibitory Concentration (MIC) (C. parapsilosis): 0.3
- Minimum Inhibitory Concentration (MIC) (C. tropicalis): 0.08
- water solubility limit [3]: 100 µg/mL
